Measured values: paper PMC3894558, “Chemical signatures and new drug targets for gametocytocidal drug development” (Scientific Reports, 2014)
Counter-ions that a name gives are not always drawn. Like-named read-outs stand apart in the source and are kept apart here.

Legend:
[1] = system: P. falciparum asexual parasites; parameters: method as in earlier work; conditions: SI Table 3, previous screens, cited from earlier work; for IC50: read-out: Activity against asexual parasites IC50
[2] = system: P. falciparum 3D7 gametocytes; experiment: alamarBlue gametocyte viability assay, strain 3D7; format: cell-based, Plasmodium falciparum
[3] = system: P. falciparum HB3 gametocytes; experiment: alamarBlue gametocyte viability assay, strain HB3; format: cell-based, Plasmodium falciparum; conditions: for IC50: 11 concentrations, 1:3 dilution, three times, read-out: HB3-gametocytes IC50
[4] = system: P. falciparum Dd2 gametocytes; experiment: alamarBlue gametocyte viability assay, strain Dd2; format: cell-based, Plasmodium falciparum
Description: Briefly, gametocyte cultures were set up at 0.1% parasitemia and on days 9–10 treated with 50 mM N-acetylglucosamine (NAG) to block further asexual growth. Stage III–V gametocytes were isolated by Percoll density gradient centrifugation on day 12 and returned to culture for 24 hrs before being used in the assay[9].
Briefly, 2.5 μl/well incomplete medium was dispensed into each well of 1,536-well plates using the Multidrop Combi followed by 23 nl compound transferring using the NX-TR Pintool (WAKO Scientific Solutions, San Diego, CA). Then, 2.5 μl/well of gametocytes was dispensed with a seeding density of 20,000 cells/well using the Multidrop Combi. The assay plates were incubated for 72 hrs at 37°C with 5% CO2.

HepG2 cells [5] = conditions: for % Max response: HepG2 cells
Excerpt: (§1) Growth medium was made with Dulbecco's Modified Eagle Medium with 10% fetal bovine serum (FBS).

HepG2 cells [6] = experiment: cells; conditions: Homo sapiens; for Emax: HepG2, read-out: % Max response; for IC50: HepG2, read-out: IC50 in HepG2 cells
Excerpt: as §1

[7] = Plasmodium falciparum, 3D7, SI Table 3, structure clusters, read-out: Activity against gametocytes IC50
[8] = SI Table 3, structure clusters, read-out: Activity against gametocytes IC50
[9] = Plasmodium falciparum, 3D7, SI Table 3, structure clusters, read-out: Activity against gametocytes Efficacy (% response)
[10] = P. falciparum 3D7 gametocytes, mean of at least 3 independent experiments, read-out: Gametocyte IC50
[11] = strain profiling, 11 concentrations, 1:3 dilution, three times, read-out: Dd2-gametocytes IC50
[12] = 11 concentrations, 1:3 dilution, Inactive = no significant activity at 46 µM
[13] = Plasmodium falciparum, HB3, strain profiling
[14] = Plasmodium falciparum, DD2, strain profiling, 11 concentrations, 1:3 dilution, three times, read-out: Dd2-gametocytes IC50
[15] = Plasmodium falciparum, 3D7, P. falciparum 3D7 gametocytes, mean of at least 3 independent experiments, read-out: Gametocyte IC50

IC50 [2, 7] | Compound | Activity against asexual parasites Efficacy (% response) [1] | Emax [2, 9] | Activity against asexual parasites IC50 [1] | also measured
 | CN(C)CCC=C1c2ccccc2CCc2ccccc21 [Amitriptyline hydrochloride] | -82.37 % response |  |  | IC50 [1]: 11.2 µM
12.6 µM | CN1C[C@H](CNC(=O)OCc2ccccc2)C[C@@H]2c3cccc4c3c(cn4C)C[C@H]21 [Metergoline, reference compound] | -71.24 % response |  |  | IC50 [2, 8]: 22.4 µM; IC50 [1]: 12.6 µM
 | CNCCCC1c2ccccc2C=Cc2ccccc21 [Protriptyline hydrochloride] | inactive | 81.7% | inactive | 
5.62 µM | CN(C)CCC=C1c2ccccc2C=Cc2ccccc21 [Cyclobenzaprine hydrochloride, reference compound] | inactive | 94.8% | inactive | IC50 [2, 8]: 10 µM
22.4 µM | CC(CN(C)C)CN1c2ccccc2CCc2ccccc21 (centres unmarked) [Trimipramine maleate, reference compound] |  | 47% | inactive | Activity against gametocytes IC50 ([2]; SI Table 3, structure clusters): inactive; IC50 [1]: 30.7 µM
28.2 µM | CCN(CC)C(=O)N[C@H]1C[C@@H]2c3cccc4[nH]cc(c34)C[C@H]2N(C)C1 [Terguride, reference compound] | inactive | 80.7% | inactive | 
 | CNCCCN1c2ccccc2CCc2ccccc21 [Desipramine hydrochloride] | inactive | 101% | inactive | 
 | CC1(C)OC2=C(C(=O)c3ccccc3C2=O)[C@H](NCc2ccccc2)[C@@H]1O [CAY10581] |  |  |  | IC50 [2, 10]: 0.743 µM; IC50 ([3]; strain profiling): 0.662 µM; IC50 [4, 11]: 2.35 µM; % Max response (HepG2 cells [5]): -86%; IC50 (HepG2 cells [5]; read-out: IC50 in HepG2 cells, 11 concentrations, 1:3 dilution, Inactive = no significant activity at 46 µM): 17.1 µM
 | C=CC1CN2CCC1CC2C(O)c1ccnc2ccc(OC)cc12.C=CC1CN2CCC1CC2C(O)c1ccnc2ccc(OC)cc12.O=S(=O)(O)O (centres unmarked) [Quinine hemisulfate] |  |  |  | IC50 [2, 10]: 0.345 µM; IC50 ([3]; strain profiling): 0.235 µM; IC50 [4, 11]: 0.083 µM; IC50 in HepG2 cells (HepG2 cells [5]; [12]): Inactive; % Max response (HepG2 cells [5]): 2%
 | CN(C)CCCN1c2ccccc2CCc2ccccc21 [Imipramine hydrochloride] | inactive |  | inactive | 
 | CCCCN(CCCC)CC(O)c1cc(Cl)cc2c1-c1ccc(Cl)cc1/C2=C/c1ccc(Cl)cc1 (centres unmarked) [Lumefantrine] | -93.57 % response | 76.5% |  | IC50 ([2]; Plasmodium falciparum, 3D7, strain profiling, 11 concentrations, 1:3 dilution, three times, read-out: 3D7-gametocytes IC50): 0.059 µM; IC50 [3, 13]: 0.033 µM; IC50 [4, 14]: 0.013 µM; IC50 [1]: 0.02 µM
 | CN(C)CCCN1c2ccccc2CCc2ccc(Cl)cc21 [Clomipramine] | inactive |  | inactive | 
22.4 µM | CCCN1C[C@H](CSC)C[C@@H]2c3cccc4[nH]cc(c34)C[C@H]21 [Pergolide methanesulfonate, reference compound] | inactive | 83.5% | inactive | Activity against gametocytes IC50 ([2]; SI Table 3, structure clusters): inactive
35.5 µM | CN1C[C@@H](NS(=O)(=O)N(C)C)C[C@@H]2c3cccc4c3c(cn4C)C[C@H]21 [Mesulergine, reference compound] | inactive | 64% | inactive | 
 | CN(C)CCC=C1c2ccccc2C(C)(C)c2ccccc21.Cl [Melitracen hydrochloride, reference compound] | inactive |  | inactive | Activity against gametocytes Efficacy (% response) ([2]; SI Table 3, structure clusters): -103.56 % response; IC50 [2, 8]: 35.5 µM
 | NC(=O)N1c2ccccc2CC(=O)c2ccccc21 [Oxcarbazepine, reference compound] | inactive |  | inactive | Activity against gametocytes Efficacy (% response) ([2]; SI Table 3, structure clusters): inactive; Activity against gametocytes IC50 ([2]; SI Table 3, structure clusters): inactive
 | CN(C)CCCN1c2ccccc2C(C)(C)c2ccccc21 [Dimetacrine, reference compound] | inactive |  | inactive | Emax ([2]; Plasmodium falciparum, 3D7, read-out: Activity against gametocytes Efficacy (% response), SI Table 3, structure clusters): 77%; IC50 ([2]; Plasmodium falciparum, 3D7, read-out: Activity against gametocytes IC50, SI Table 3, structure clusters): 22.4 µM
17.8 µM | C=CCN1C[C@H](C(=O)N(CCCN(C)C)C(=O)NCC)C[C@@H]2c3cccc4[nH]cc(c34)C[C@H]21 [Cabergoline, reference compound] | -63.65 % response | 80.1% |  | IC50 [1]: 17.8 µM
 | COc1ccc(C2NC(=S)N3C(c4ccc(OC)c(OC)c4)NC(=S)N23)cc1OC (centres unmarked) [NSC174938] |  |  |  | IC50 in HepG2 cells (HepG2 cells [5]; [12]): Inactive
 | COC(=O)C[C@](O)(CCCC(C)(C)O)C(=O)O[C@@H]1C(OC)=C[C@]23CCCN2CCc2cc4c(cc2[C@H]13)OCO4 [Omacetaxine] |  |  |  | IC50 [2, 10]: 0.083 µM; IC50 in HepG2 cells (HepG2 cells [5]; [12]): Curve not complete; % Max response (HepG2 cells [5]): -27%
 | CN1CCC(=C2c3ccccc3C=Cc3ccccc32)CC1 [Cyproheptadine hydrochloride] | inactive |  | inactive | Activity against gametocytes Efficacy (% response) ([2]; SI Table 3, structure clusters): -80.99 % response
19.9 µM | CN(CCCN1c2ccccc2CCc2ccccc21)CC(=O)c1ccc(Cl)cc1 [Lofepramine hydrochloride, reference compound] | -103.99 % response | 103% |  | IC50 [1]: 10 µM
 | C#Cc1cccc(Nc2ncnc3cc(OC)c(OCCCCCCC(=O)NO)cc23)c1 [CUDC-101] |  |  |  | IC50 [2, 15]: 0.833 µM; fold more potent against HB3 compared to 3D7 gametocytes [3]: 5.5 fold; IC50 [3, 13]: 0.152 µM; IC50 [4, 14]: 0.429 µM; Emax (HepG2 cells [6]): -76%; IC50 (HepG2 cells [6]): 6.79 µM
 | CN1CCC(=C2c3ccccc3C=Cc3ccccc32)CC1 [Cyproheptadine] | inactive |  | inactive | Activity against gametocytes Efficacy (% response) ([2]; SI Table 3, structure clusters): -122.81 % response
 | CO[C@H]1/C=C\C=C(/C)C(=O)NC2=CC(=O)C(NCCN(C)C)=C(C[C@@H](C)C[C@H](OC)[C@H](O)[C@@H](C)/C=C(\C)[C@@H]1OC(N)=O)C2=O [Alvespimycin] |  |  |  | IC50 [2, 15]: 0.074 µM; IC50 [3, 13]: 0.235 µM; IC50 ([4]; Plasmodium falciparum, DD2, read-out: Dd2-gametocytes IC50): 0.094 µM; Emax (HepG2 cells [6]): -94%; IC50 (HepG2 cells [6]): 0.118 µM
22.4 µM | CO[C@]12C[C@@H](COC(=O)c3cncc(Br)c3)CN(C)[C@@H]1Cc1cn(C)c3cccc2c13 [Nicergoline, reference compound] | inactive | 39.4% | inactive | 
 | CN(C)CCCN1c2ccccc2CCc2ccc(Cl)cc21 [Clomipramine hydrochloride] | inactive |  | inactive | 

Compound | IC50 [2, 7] | Activity against asexual parasites Efficacy (% response) [1] | Emax [2, 9] | Activity against asexual parasites IC50 [1] | also measured
CNCCC=C1c2ccccc2CCc2ccccc21 [Nortriptyline hydrochloride, reference compound] | 22.4 µM | inactive | 111% | inactive | IC50 [2, 8]: 35.5 µM
